Results from ChEMBL document CHEMBL1129698, “Homo-N-nucleosides: Incorporation into oligonucleotides and antiviral activity” (1996).
In brackets after ≈: the same amount, converted by molar mass.

Assays:
Type in all cases: functional
Human alphaherpesvirus 1 [1] = experiment: Compound was tested for the antiviral activity against herpes simplex virus-1 (HSV-1) KOS strain
Human alphaherpesvirus 1 [2] = experiment: Compound was tested for the antiviral activity against herpes simplex virus-1 thymidine kinase deficient (HSV-1 TK-) B2006 strain
Human alphaherpesvirus 1 [3] = experiment: Compound was tested for the antiviral activity against herpes simplex virus-1 thymidine kinase deficient (HSV-1 TK-) VMW 1837 strain
Human alphaherpesvirus 2 = experiment: Compound was tested for the antiviral activity against herpes simplex virus-2 (HSV-2) G strain
[4] = Minimum cytotoxic concentration required to cause a microscopically detectable alteration of normal cell morphology

## Nc1nc2c(ncn2COCCO)c(=O)[nH]1 [ACYCLOVIR]
Human alphaherpesvirus 1 [1]
  MIC: 0.02 µg/mL (≈ 0.0888 µM)
Human alphaherpesvirus 1 [2]
  MIC: 80 µg/mL (≈ 355 µM)
Human alphaherpesvirus 1 [3]
  MIC: 4 µg/mL (≈ 17.8 µM)
Human alphaherpesvirus 2
  MIC: 0.03 µg/mL (≈ 0.133 µM)
[4]
  MIC: > 400 µg/mL

## NC1=NC(=O)C2N=CN(C[C@H]3C[C@H](O)[C@@H](CO)O3)C2=N1 (stereo not given in full)
Human alphaherpesvirus 1 [1]
  MIC: 5 µg/mL (≈ 17.8 µM)
Human alphaherpesvirus 1 [2]
  MIC: 12 µg/mL (≈ 42.7 µM)
Human alphaherpesvirus 1 [3]
  MIC: 12 µg/mL (≈ 42.7 µM)
Human alphaherpesvirus 2
  MIC: 5 µg/mL (≈ 17.8 µM)
[4]
  MIC: > 400 µg/mL

## Nc1ncnc2c1ncn2C[C@H]1C[C@H](O)[C@@H](CO)O1
Human alphaherpesvirus 1 [1]
  MIC: 20 µg/mL (≈ 75.4 µM)
Human alphaherpesvirus 1 [2]
  MIC: 10 µg/mL (≈ 37.7 µM)
Human alphaherpesvirus 1 [3]
  MIC: 8 µg/mL (≈ 30.2 µM)
Human alphaherpesvirus 2
  MIC: 6 µg/mL (≈ 22.6 µM)
[4]
  MIC: > 400 µg/mL

## O=c1[nH]c(=O)n([C@H]2C[C@H](O)[C@@H](CO)O2)cc1/C=C/Br [BRIVUDINE]
Human alphaherpesvirus 1 [1]
  MIC: 0.007 µg/mL (≈ 0.021 µM)
Human alphaherpesvirus 1 [2]
  MIC: 20 µg/mL (≈ 60 µM)
Human alphaherpesvirus 1 [3]
  MIC: 30 µg/mL (≈ 90.1 µM)
Human alphaherpesvirus 2
  MIC: > 100 µg/mL
[4]
  MIC: 200 µg/mL (≈ 600 µM)
